From PMC7249060, “The Antiproliferative Effects of Flavonoid MAO Inhibitors on Prostate Cancer Cells” (Molecules, 2020)

Experiments:
DU145 cells = assay: Scratch migration assay; type: cell-based, human; conditions: preliminary data
Description: For in-vitro migration experiments, the PCa metastatic DU145 cell line was used. Cell proliferation and cytotoxicity were monitored for assay validation. The cells (passage # ≤ 10) were grown in fresh media of EMEM 10% FBS, 1% P/S. The cells were seeded in flat-bottom transparent 96-well microplates (100,000 cells/100 μL/well) in EMEM 5% FBS, 1% P/S experimental media. The next day, the confluent cells monolayer was artificially injured by scratching a line across each well, using a 200 μL tip. Immediately, the old media with the detached cells were replaced with 175 μL fresh warm experimental media. Intact cells were then treated with 25 μL of HBSS buffer 7.4 containing tested KKR. In addition to the negative control, KKR11 was tested at gradual concentrations to make finals of 40, 30, 23, 17, and 13 μM. The cells were then incubated for an additional 72 h for gap closure of the control wells.
At the gap closure time point, all cells were subjected to the crystal violet assay that only stains viable cells. Briefly, all media were carefully aspired from cells that were then washed with Ca- and Mg-free PBS. The cells were then fixed with 100 μL 0.25% v/v glutaraldehyde, at 37 °C for 20–30 min incubation time, and dried overnight. The next day, all viable attached cells were stained with a 100 μL crystal violet solution (0.1% in DI-water) for up to 30 min. The solution was then discarded, and the stained cells were kept dry for imaging. Images of the scratched areas were photographed using 10X phase contrast objective lenses of Motic-MXH-100-AE31E-Elite Inverted Microscope.

LNCaP cells [1] = assay: Antiproliferation screen assay, resazurin, 72 h; type: cell-based, human
LNCaP cells [2] = assay: Antiproliferation dose-response assay for 72 h; type: cell-based; conditions: Homo sapiens, mean ± SEM of two experiments, read-out: antiproliferative IC50
Description: For the top effective KKRs, along with TAX, their potency to reduce the affected PCa cell line growth in a dose-dependent manner was determined using the resazurin fluorescence assay. We followed the same protocols and materials used for the antiproliferation screen assays (Section 4.3.2), with the following modifications. The maximum final KKR concentration used was 40 μM. The concentration of 8X of each KKR working solution in 1% HEPES 7.4 was serially diluted in a 3:1 ratio, compound to buffer, respectively. Each data set was collected from ten data points of 3.7–40 μM range. The control had the KKR substituted with buffer. The related IC50 averages were analyzed for the compounds that affected the cell lines the most.

LNCaP cells [3] = assay: Antiproliferation screen assay, resazurin, 72 h; type: cell-based, human; conditions: 50 μM
Description: In this screen, we examined the growth inhibitory effects of all synthesized KKRs on the three human PCa cell lines LNCaP, DU145, and PC3. The antiproliferative clinical drug TAX of 0.25 μM was used as a positive control. Additionally, different standards of MAO-Is and FLUT were tested for their effect on the LNCaP cells. Briefly, the procedures and materials used were the same as for the viability assay except for the following—cultured cells were seeded at 10,000 cells/175-µL/well related experimental media, and the resazurin solution was added after 72 h of incubation with the compounds of 50 μM each.

LNCaP cells [4] = assay: Viability screen assay, resazurin, 24 h; type: cell-based, human; conditions: 50 μM, 90% viability as margin of cytotoxicity
Description: We examined the cytotoxic effects of all 20 synthesized KKRs on the three human PCa cell lines LNCaP, DU145, and PC3, after a 24 h exposure period. Non-toxic TAX was used for comparison. Briefly, cultured cells were seeded in black transparent bottom 96-well microplates at 50,000 cells/175-µL/well in experimental media (RPMI1640 for LNCaP, EMEM for DU145, and DMEM/F12K for PC3), supplied with 5% FBS and 1% P/S. Wells of media without cells were considered blanks and negative controls. The plates were incubated overnight at 37 °C in 5% CO2 to allow cell attachment. For each compound, a working solution of 8X KKR in sterile […] HEPES in HBSS pH buffer of 7.4 was prepared for a final concentration of 50 μM each. The three attached cell types were treated immediately with the related buffer being added to the control wells. A sterile fluorescence-based solution of the resazurin reagent of 0.5 mg/mL in HBSS was prepared. After 24 h, the cells were exposed to 15% v/v of the sterile resazurin reagent, and the plates were re-incubated for 4.5 h to allow redox reaction. All plates were read under 530/590-nm excitation/emission wavelengths using Bio-Tek Synergy HTX Multi-reader as a microplate fluorescence reader.

hMAO-B = target: T1, hMAO-B (Homo sapiens, UniProt P27338); assay: MAO-Glow inhibitory potency (IC50); type: biochemical; conditions: mean ± SEM, at least two experiments; LDS 4 μM
T1 construct: purchased Sigma-Aldrich Co. (St. Louis, MO, USA)
T1 sequence (P27338 1-520): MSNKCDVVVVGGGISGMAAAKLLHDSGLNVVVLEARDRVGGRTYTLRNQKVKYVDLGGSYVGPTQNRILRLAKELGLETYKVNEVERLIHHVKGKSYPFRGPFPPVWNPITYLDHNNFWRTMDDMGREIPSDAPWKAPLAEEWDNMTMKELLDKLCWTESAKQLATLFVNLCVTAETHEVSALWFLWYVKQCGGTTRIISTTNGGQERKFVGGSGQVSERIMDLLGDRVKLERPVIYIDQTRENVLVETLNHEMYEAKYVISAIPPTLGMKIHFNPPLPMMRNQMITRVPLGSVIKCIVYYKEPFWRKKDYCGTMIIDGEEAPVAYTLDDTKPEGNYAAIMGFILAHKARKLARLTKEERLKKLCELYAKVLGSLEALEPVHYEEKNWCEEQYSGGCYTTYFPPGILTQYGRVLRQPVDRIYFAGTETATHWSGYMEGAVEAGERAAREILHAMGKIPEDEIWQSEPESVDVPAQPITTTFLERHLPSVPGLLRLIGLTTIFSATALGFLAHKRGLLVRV
Description: (§1) The inhibitory effects of the synthesized KKRs of hMAO-A and B were tested by measuring the decrease in arbitrary light units (ALU) signal produced by the optimized isozymes using the MAO-Glow™ Assay at 37 °C. In this assay, DMSO stock for each KKR compound was diluted with a reaction buffer of pH 7.4 to make a 4X working solution for a maximum final concentration of 100 μM and ≤1% DMSO. The experiments were run in the absence and presence of 4X the miscellaneous standards of MAO-BIs (DEP, PARG, and SAF) and MAO-AIs (PIRL and CLORG), with similar concentrations. In white opaque 96-well microplates, 12.5 μL of each compound was plated at RT and was followed by 25 μL of 2X cold hMAO-A or hMAO-B, for a final concentration of 0.44 U/mL. A related buffer substituted each isozyme to make the blank wells and substituted each compound to make the negative control wells. Following this, we added 12.5 μL of 4X LDS to make a final substrate concentration of 40- and 4-μM for hMAO-A and hMAO-B, respectively. All screen plates were incubated at 37 °C for 60 min. The plates of 50 μL/well were then taken out from the incubator, and their reactions were stopped by an equal volume of 50 μL of reporter luciferin detection reagent (RLDR). After 30 min, the luminescence signals for all plates were read on a Synergy HTX Multi-reader from Bio-Tek (Winooski, VT, USA).
(§2) The experiments were performed in the presence and absence of the standard PILR. In white opaque 96-well plates, each KKR compound was serially diluted with a reaction buffer of pH 7.4 at the highest possible maximum final concentration, and the least used DMSO (<2%). In blank wells, the related reaction buffer substituted the isozyme. In negative control wells, the reaction buffer substituted each compound concentration. Then, the procedure was carried out as mentioned above (Section 4.2.2), and the reaction was detected on the Bio-Tek Synergy HTX Multi-Reader. The IC50 of each KKR on both isozymes was determined and subsequently the RSA and RSB was calculated.
(§3) Statistical analyses were performed using the GraphPad Prism program (version 6.07 for Windows) from the GraphPad Prism Software Incorporated (San Diego, CA, USA). All data points and parameters were expressed as the mean ± SEM. All parameters were calculated from non-linear and linear regressions with the best R^2 values, no less than 93%. The inhibitory concentration of 50% of isozyme (IC50) of each compound was obtained by the interpolation of a normalized variable slope logarithmic curve. The RSA values of the selected compounds were calculated from their IC50 average means following the equation RSA = hMAO − B IC50/Hmao − A IC50(1)

hMAO-A = target: T2, hMAO-A (Homo sapiens, UniProt P21397); assay: MAO-Glow inhibitory potency (IC50) and relative selectivity; type: biochemical; conditions: mean ± SEM, at least two experiments; LDS 40 μM
T2 construct: purchased Sigma-Aldrich Co. (St. Louis, MO, USA)
T2 sequence (P21397 1-527): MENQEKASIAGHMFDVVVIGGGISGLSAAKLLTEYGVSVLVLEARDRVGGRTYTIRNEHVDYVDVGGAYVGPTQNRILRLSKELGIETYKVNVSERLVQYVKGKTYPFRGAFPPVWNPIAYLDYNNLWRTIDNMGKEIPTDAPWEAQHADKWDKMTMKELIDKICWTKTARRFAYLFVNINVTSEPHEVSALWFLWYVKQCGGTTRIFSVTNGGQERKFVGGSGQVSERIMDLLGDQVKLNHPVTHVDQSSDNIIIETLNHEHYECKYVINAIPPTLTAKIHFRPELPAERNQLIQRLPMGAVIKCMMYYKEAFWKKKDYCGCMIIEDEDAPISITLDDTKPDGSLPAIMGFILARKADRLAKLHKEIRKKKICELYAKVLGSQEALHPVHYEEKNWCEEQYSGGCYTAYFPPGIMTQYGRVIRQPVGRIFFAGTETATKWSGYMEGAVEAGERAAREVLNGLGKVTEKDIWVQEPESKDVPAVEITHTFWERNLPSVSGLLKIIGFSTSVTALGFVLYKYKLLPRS
Description: as §1, §2, §3

LNCaP cells [5] = assay: cells; type: cell-based, human
Description: The morphological alterations of the LNCaP cells were imaged, and their percentage proliferation rate was measured after five-days of incubation. The method of subculture and treatment were similar to our antiproliferation assay, with slight modifications. Briefly, the cells were seeded in transparent flat-bottom 96-well microplates with 10,000 cells/175 μL/well of […] experimental media. Following overnight incubation, 20 μM concentration level (~2 × IC50) for each of KKR11, 20, 7, 2A, 21, and the standard PIRL were added to the cells for a total volume of 200 μL/well and re-incubated for five-days. On the day of imaging, 20X phase-contrast images of lid-covered treated and control cells were captured using an inverted microscope. Resazurin was then added for viability detection, and the imaged cells in the wells were read after 4.5 h on the Bio-Tek Synergy HTX Multi-reader.

CC(=O)O[C@H]1C(=O)[C@@]2(C)[C@H]([C@H](OC(=O)c3ccccc3)[C@]3(O)C[C@H](OC(=O)[C@H](O)[C@@H](NC(=O)c4ccccc4)c4ccccc4)C(C)=C1C3(C)C)[C@]1(OC(C)=O)CO[C@@H]1C[C@@H]2O [TAX, paclitaxel, reference compound]
effect on cell migration (DU145 cells): delayed cell migration | antiproliferative effect of clinical standards (LNCaP cells [1]; 0.5 μM): highly effective | IC50 (LNCaP cells [2]): 210 nM

O=C(/C=C/c1ccc2c(c1)OCO2)c1cc(Cl)cc(Cl)c1O [KKR18, (E)-3-(benzo[d][1,3]dioxol-5-yl)-1-(3,5-dichloro-2-hydroxyphenyl)prop-2-en-1-one]
antiproliferative effect in screen (LNCaP cells [3]): top five KKRs that kept standing out with antiproliferative effects

COc1cc(OC)c2c(=O)c(O)c(/C=C/c3ccccc3)oc2c1 [KKR16, (E)-3-hydroxy-5,7-dimethoxy-2-styryl-4H-chromen-4-one]
cytotoxicity / cell viability (LNCaP cells [4]): affected the LNCaP cells

C#CCN(C)[C@H](C)Cc1ccccc1.Cl [DEP, (R)-(−)-deprenyl HCl]
antiproliferative effect of clinical standards (LNCaP cells [1]; 10 μM): none of the standards showed a significant antiproliferative effect

CC(C)C(=O)Nc1ccc([N+](=O)[O-])c(C(F)(F)F)c1 [FLUT, flutamide]
antiproliferative effect of clinical standards (LNCaP cells [1]; 10 μM): none of the standards showed a significant antiproliferative effect

COc1cc(-c2cc(=O)c3ccccc3o2)cc(OC)c1OC [KKR22, 2-(3,4,5-trimethoxyphenyl)-4H-chromen-4-one]
cytotoxicity / cell viability (LNCaP cells [4]): affected the LNCaP cells

O=C(/C=C/c1ccccc1)c1cc(Cl)c(Cl)cc1O [KKR23, (E)-1-(4,5-dichloro-2-hydroxyphenyl)-3-phenylprop-2-en-1-one]
antiproliferative effect in screen (LNCaP cells [3]): top five KKRs that kept standing out with antiproliferative effects

Cc1ccc2c(c1)c1c3n2CCNC3CCC1 (stereo not drawn) [PIRL, pirlindole, reference compound]
IC50 (hMAO-B): > 800000 nM | IC50 (hMAO-A): 12 ± 2 nM | effect on LNCaP proliferation and cell morphology (LNCaP cells [5]; 20 μM, five days, phase contrast): neither significant effects on LNCaP proliferation nor apparent changes in cell morphology | viability at 20 µM (LNCaP cells [5]; Homo sapiens, LNCaP, 120 h, read-out: percentage of treated group compared to the viable control): 90% | antiproliferative effect of clinical standards (LNCaP cells [1]; 10 μM): none of the standards showed a significant antiproliferative effect | IC50 (LNCaP cells [2]): > 40000 nM
